Assay results reported in ChEMBL document CHEMBL1641454, “6-Benzylamino 4-oxo-1,4-dihydro-1,8-naphthyridines and 4-oxo-1,4-dihydroquinolines as HIV integrase inhibitors” (Bioorg Med Chem Lett, 2011).
pEC50: −log10 of the molar value.

System: not listed separately
Assay: Metabolic stability in human liver microsome assessed as compound remaining after 30 mins
Type: ADME
Details: liver microsomes, read-out: Stability

Row | SMILES | remaining at 0.5 h
1 | CC(C)(C)[C@@H](CO)n1cc(C(=O)O)c(=O)c2cc(Cc3cccc(Cl)c3F)c(OCCO)nc21 | 45%
2 | COc1nc2c(cc1NCc1c(F)cc(F)cc1F)c(=O)c(C(=O)O)cn2[C@H](CO)C(C)C | 82%
3 | CC(C)[C@@H](CO)n1cc(C(=O)O)c(=O)c2cc(Cc3cccc(Cl)c3F)ncc21 | 100%
4 | COc1nc2c(cc1Cc1cccc(Cl)c1F)c(=O)c(C(=O)O)cn2[C@H](CO)C(C)(C)C | 82%
5 | CC(C)(C)[C@@H](CO)n1cc(C(=O)O)c(=O)c2cc(Cc3cccc(Cl)c3F)c(O)nc21 | 87%
6 | CC(C)[C@@H](CO)n1cc(C(=O)O)c(=O)c2cc(Cc3cccc(Cl)c3F)cnc21 | 99%
7 | COc1nc2c(cc1Cc1cccc(Cl)c1F)c(=O)c(C(=O)O)cn2[C@H](CO)C(C)C | 100%
8 | COc1nc2c(cc1Cc1cccc(Cl)c1F)c(=O)c(C(=O)O)cn2[C@H](CO)CC(C)C | 92%
9 | COc1nc2c(cc1NCc1ccc(F)cc1)c(=O)c(C(=O)O)cn2[C@H](CO)C(C)C | 87%
10 | CCOc1nc2c(cc1Cc1cccc(Cl)c1F)c(=O)c(C(=O)O)cn2[C@H](CO)C(C)(C)C | 84%
11 | COc1nc2c(cc1NCc1ccc(F)cc1F)c(=O)c(C(=O)O)cn2[C@H](CO)C(C)C | 87%
12 | COc1nc2c(cc1NCc1c(F)cc(F)cc1F)c(=O)c(C(=O)O)cn2[C@H](CO)C(C)(C)C | 75%
13 | CC(C)(C)[C@@H](CO)n1cc(C(=O)O)c(=O)c2cc(Cc3cccc(Cl)c3F)c(N3CCOCC3)nc21 | 97%
14 | COc1nc2c(cc1NCc1ccccc1F)c(=O)c(C(=O)O)cn2[C@H](CO)C(C)C | 97%

System: not listed separately
Assay: Plasma clearance in rat at 2 mg/kg, iv
Type: ADME, organism-based
Set-up: dose 2 mg/kg, route intravenous
Details: not given

Row | SMILES | clearance
15 | COc1nc2c(cc1Cc1cccc(Cl)c1F)c(=O)c(C(=O)O)cn2[C@H](CO)C(C)(C)C | 2.67 mL/min/kg
16 | COc1nc2c(cc1NCc1c(F)cc(F)cc1F)c(=O)c(C(=O)O)cn2[C@H](CO)C(C)(C)C | 5.83 mL/min/kg
17 | CC(C)(C)[C@@H](CO)n1cc(C(=O)O)c(=O)c2cc(Cc3cccc(Cl)c3F)c(N3CCOCC3)nc21 | 7 mL/min/kg

System: not listed separately
Assay: Volume of distribution in rat at 2 mg/kg, iv
Type: ADME, organism-based
Set-up: dose 2 mg/kg, route intravenous
Details: in vivo

Row | SMILES | Vd
18 | COc1nc2c(cc1Cc1cccc(Cl)c1F)c(=O)c(C(=O)O)cn2[C@H](CO)C(C)(C)C | 2.31 L/kg
19 | COc1nc2c(cc1NCc1c(F)cc(F)cc1F)c(=O)c(C(=O)O)cn2[C@H](CO)C(C)(C)C | 4.18 L/kg
20 | CC(C)(C)[C@@H](CO)n1cc(C(=O)O)c(=O)c2cc(Cc3cccc(Cl)c3F)c(N3CCOCC3)nc21 | 4.02 L/kg

System: not listed separately
Assay: Cmax in rat at 5 mg/kg, po
Type: ADME, organism-based
Set-up: dose 5 mg/kg, route oral
Details: in vivo

Row | SMILES | Cmax
21 | COc1nc2c(cc1Cc1cccc(Cl)c1F)c(=O)c(C(=O)O)cn2[C@H](CO)C(C)(C)C | 1230 ng/mL
22 | COc1nc2c(cc1NCc1c(F)cc(F)cc1F)c(=O)c(C(=O)O)cn2[C@H](CO)C(C)(C)C | 666 ng/mL
23 | CC(C)(C)[C@@H](CO)n1cc(C(=O)O)c(=O)c2cc(Cc3cccc(Cl)c3F)c(N3CCOCC3)nc21 | 414 ng/mL

System: not listed separately
Assay: AUC in rat at 5 mg/kg, po
Type: ADME, organism-based
Set-up: dose 5 mg/kg, route oral
Details: plasma

Row | SMILES | AUC
24 | COc1nc2c(cc1Cc1cccc(Cl)c1F)c(=O)c(C(=O)O)cn2[C@H](CO)C(C)(C)C | 8500 ng·h/mL
25 | COc1nc2c(cc1NCc1c(F)cc(F)cc1F)c(=O)c(C(=O)O)cn2[C@H](CO)C(C)(C)C | 2890 ng·h/mL
26 | CC(C)(C)[C@@H](CO)n1cc(C(=O)O)c(=O)c2cc(Cc3cccc(Cl)c3F)c(N3CCOCC3)nc21 | 2700 ng·h/mL

System: not listed separately
Assay: Half life in rat at 5 mg/kg, po
Type: ADME, organism-based
Set-up: dose 5 mg/kg, route oral
Details: in vivo

Row | SMILES | half-life
27 | COc1nc2c(cc1Cc1cccc(Cl)c1F)c(=O)c(C(=O)O)cn2[C@H](CO)C(C)(C)C | 2.9 h
28 | COc1nc2c(cc1NCc1c(F)cc(F)cc1F)c(=O)c(C(=O)O)cn2[C@H](CO)C(C)(C)C | 3.7 h
29 | CC(C)(C)[C@@H](CO)n1cc(C(=O)O)c(=O)c2cc(Cc3cccc(Cl)c3F)c(N3CCOCC3)nc21 | 2.6 h

System: not listed separately
Assay: Oral bioavailability in rat at 5 mg/kg
Type: ADME, organism-based
Details: in vivo

Row | SMILES | bioavailability
30 | COc1nc2c(cc1Cc1cccc(Cl)c1F)c(=O)c(C(=O)O)cn2[C@H](CO)C(C)(C)C | 31%
31 | COc1nc2c(cc1NCc1c(F)cc(F)cc1F)c(=O)c(C(=O)O)cn2[C@H](CO)C(C)(C)C | 23%
32 | CC(C)(C)[C@@H](CO)n1cc(C(=O)O)c(=O)c2cc(Cc3cccc(Cl)c3F)c(N3CCOCC3)nc21 | 26%

System: not listed separately
Assay: Plasma clearance in Beagle dog at 1 mg/kg, iv
Type: ADME, organism-based, Canis lupus familiaris
Set-up: dose 1 mg/kg, route intravenous
Details: not given

Row | SMILES | clearance
33 | COc1nc2c(cc1NCc1c(F)cc(F)cc1F)c(=O)c(C(=O)O)cn2[C@H](CO)C(C)(C)C | 15.5 mL/min/kg
34 | CC(C)(C)[C@@H](CO)n1cc(C(=O)O)c(=O)c2cc(Cc3cccc(Cl)c3F)c(N3CCOCC3)nc21 | 10 mL/min/kg

System: not listed separately
Assay: Volume of distribution in Beagle dog at 1 mg/kg, iv
Type: ADME, organism-based, Canis lupus familiaris
Set-up: dose 1 mg/kg, route intravenous
Details: in vivo

Row | SMILES | Vd
35 | COc1nc2c(cc1NCc1c(F)cc(F)cc1F)c(=O)c(C(=O)O)cn2[C@H](CO)C(C)(C)C | 1.93 L/kg
36 | CC(C)(C)[C@@H](CO)n1cc(C(=O)O)c(=O)c2cc(Cc3cccc(Cl)c3F)c(N3CCOCC3)nc21 | 1.03 L/kg

System: not listed separately
Assay: Half life in Beagle dog at 1 mg/kg, iv
Type: ADME, organism-based, Canis lupus familiaris
Set-up: dose 1 mg/kg, route intravenous
Details: in vivo

Row | SMILES | half-life
37 | COc1nc2c(cc1NCc1c(F)cc(F)cc1F)c(=O)c(C(=O)O)cn2[C@H](CO)C(C)(C)C | 2 h
38 | CC(C)(C)[C@@H](CO)n1cc(C(=O)O)c(=O)c2cc(Cc3cccc(Cl)c3F)c(N3CCOCC3)nc21 | 2.6 h

System: not listed separately
Assay: Plasma clearance in rhesus monkey at 1 mg/kg, iv
Type: ADME, organism-based, Macaca mulatta
Set-up: dose 1 mg/kg, route intravenous
Details: not given

Row | SMILES | clearance
39 | COc1nc2c(cc1NCc1c(F)cc(F)cc1F)c(=O)c(C(=O)O)cn2[C@H](CO)C(C)(C)C | 44.2 mL/min/kg
40 | CC(C)(C)[C@@H](CO)n1cc(C(=O)O)c(=O)c2cc(Cc3cccc(Cl)c3F)c(N3CCOCC3)nc21 | 19.7 mL/min/kg

System: not listed separately
Assay: Volume of distribution in rhesus monkey at 1 mg/kg, iv
Type: ADME, organism-based, Macaca mulatta
Set-up: dose 1 mg/kg, route intravenous
Details: in vivo

Row | SMILES | Vd
41 | COc1nc2c(cc1NCc1c(F)cc(F)cc1F)c(=O)c(C(=O)O)cn2[C@H](CO)C(C)(C)C | 3.93 L/kg
42 | CC(C)(C)[C@@H](CO)n1cc(C(=O)O)c(=O)c2cc(Cc3cccc(Cl)c3F)c(N3CCOCC3)nc21 | 3.06 L/kg

System: not listed separately
Assay: Half life in rhesus monkey at 1 mg/kg, iv
Type: ADME, organism-based, Macaca mulatta
Set-up: dose 1 mg/kg, route intravenous
Details: in vivo

Row | SMILES | half-life
43 | COc1nc2c(cc1NCc1c(F)cc(F)cc1F)c(=O)c(C(=O)O)cn2[C@H](CO)C(C)(C)C | 2.2 h
44 | CC(C)(C)[C@@H](CO)n1cc(C(=O)O)c(=O)c2cc(Cc3cccc(Cl)c3F)c(N3CCOCC3)nc21 | 8.1 h

System: Human immunodeficiency virus 1
Assay: Antiviral activity against VSV-G protein pseudotyped HIV1 luciferase reporter virus in mixture of human HeLa/JC53 cells assessed as luminescence after 48 hrs
Type: functional, organism-based
Details: Human immunodeficiency virus 1, Hela-JC53, 48 h

Row | SMILES | pEC50
45 | CC(C)(C)[C@@H](CO)n1cc(C(=O)O)c(=O)c2cc(Cc3cccc(Cl)c3F)c(OCCO)nc21 | 9.05
46 | COc1nc2c(cc1NCc1c(F)cc(F)cc1F)c(=O)c(C(=O)O)cn2[C@H](CO)C(C)C | 8.85
47 | CC(C)[C@@H](CO)n1cc(C(=O)O)c(=O)c2cc(Cc3cccc(Cl)c3F)ncc21 | 7.27
48 | COc1nc2c(cc1Cc1cccc(Cl)c1F)c(=O)c(C(=O)O)cn2[C@H](CO)C(C)(C)C | 8.07
49 | CC(C)(C)[C@@H](CO)n1cc(C(=O)O)c(=O)c2cc(Cc3cccc(Cl)c3F)c(O)nc21 | 8.57
50 | CC(C)[C@@H](CO)n1cc(C(=O)O)c(=O)c2cc(Cc3cccc(Cl)c3F)cnc21 | 7.19
51 | COc1nc2c(cc1Cc1cccc(Cl)c1F)c(=O)c(C(=O)O)cn2[C@H](CO)C(C)C | 7.96
52 | COc1nc2c(cc1Cc1cccc(Cl)c1F)c(=O)c(C(=O)O)cn2[C@H](CO)CC(C)C | 8.23
53 | COc1nc2c(cc1NCc1ccc(F)cc1)c(=O)c(C(=O)O)cn2[C@H](CO)C(C)C | 7.01
54 | CCOc1nc2c(cc1Cc1cccc(Cl)c1F)c(=O)c(C(=O)O)cn2[C@H](CO)C(C)(C)C | 8.85
55 | COc1nc2c(cc1NCc1ccc(F)cc1F)c(=O)c(C(=O)O)cn2[C@H](CO)C(C)C | 8.34
56 | COc1nc2c(cc1NCc1c(F)cc(F)cc1F)c(=O)c(C(=O)O)cn2[C@H](CO)C(C)(C)C | 8.12
57 | CC(C)(C)[C@@H](CO)n1cc(C(=O)O)c(=O)c2cc(Cc3cccc(Cl)c3F)c(N3CCOCC3)nc21 | 8.00
58 | COc1nc2c(cc1NCc1ccccc1F)c(=O)c(C(=O)O)cn2[C@H](CO)C(C)C | 7.09

System: Human immunodeficiency virus 1
Assay: Antiviral activity against VSV-G protein pseudotyped HIV1 luciferase reporter virus in mixture of human HeLa/JC53 cells assessed as luminescence after 48 hrs in presence of 40% human serum
Type: functional, organism-based
Details: Human immunodeficiency virus 1, Hela-JC53, 48 h

Row | SMILES | pEC50
59 | CC(C)(C)[C@@H](CO)n1cc(C(=O)O)c(=O)c2cc(Cc3cccc(Cl)c3F)c(OCCO)nc21 | 8.62
60 | COc1nc2c(cc1NCc1c(F)cc(F)cc1F)c(=O)c(C(=O)O)cn2[C@H](CO)C(C)C | 7.28
61 | CC(C)[C@@H](CO)n1cc(C(=O)O)c(=O)c2cc(Cc3cccc(Cl)c3F)ncc21 | 6.37
62 | COc1nc2c(cc1Cc1cccc(Cl)c1F)c(=O)c(C(=O)O)cn2[C@H](CO)C(C)(C)C | 7.21
63 | CC(C)(C)[C@@H](CO)n1cc(C(=O)O)c(=O)c2cc(Cc3cccc(Cl)c3F)c(O)nc21 | 6.70
64 | CC(C)[C@@H](CO)n1cc(C(=O)O)c(=O)c2cc(Cc3cccc(Cl)c3F)cnc21 | 5.71
65 | COc1nc2c(cc1Cc1cccc(Cl)c1F)c(=O)c(C(=O)O)cn2[C@H](CO)C(C)C | 6.87
66 | COc1nc2c(cc1Cc1cccc(Cl)c1F)c(=O)c(C(=O)O)cn2[C@H](CO)CC(C)C | 6.89
67 | COc1nc2c(cc1NCc1ccc(F)cc1)c(=O)c(C(=O)O)cn2[C@H](CO)C(C)C | 6.38
68 | CCOc1nc2c(cc1Cc1cccc(Cl)c1F)c(=O)c(C(=O)O)cn2[C@H](CO)C(C)(C)C | 7.72
69 | COc1nc2c(cc1NCc1ccc(F)cc1F)c(=O)c(C(=O)O)cn2[C@H](CO)C(C)C | 6.86
70 | COc1nc2c(cc1NCc1c(F)cc(F)cc1F)c(=O)c(C(=O)O)cn2[C@H](CO)C(C)(C)C | 7.38
71 | CC(C)(C)[C@@H](CO)n1cc(C(=O)O)c(=O)c2cc(Cc3cccc(Cl)c3F)c(N3CCOCC3)nc21 | 7.41
72 | COc1nc2c(cc1NCc1ccccc1F)c(=O)c(C(=O)O)cn2[C@H](CO)C(C)C | 6.55
